How the values were obtained:
[1] = target: T1, BmCSP3 (chemosensory protein 3) (Bombyx mori, UniProt Q3LBA2); experiment: 1-NPN fluorescence displacement binding assay with purified protein
T1 construct: residues 19–109 of UniProt entry Q3LBA2
T1 sequence (Q3LBA2 19-127): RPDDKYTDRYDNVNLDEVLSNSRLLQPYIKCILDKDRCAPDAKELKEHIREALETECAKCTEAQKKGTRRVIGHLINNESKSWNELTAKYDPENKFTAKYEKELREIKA

[2] = target: T1, BmCSP3 (chemosensory protein 3); experiment: biochemical; design: 1-NPN fluorescence displacement from purified BmCSP3; EC50int interpolated, Ki by Cheng-Prusoff; details: EC50int, 1-NPN displacement; read-out: EC50,int ± SE (μΜ)
Protocol: (§1) The dissociation constant (Kd) of the fluorescent probe 1-NPN (N-Phenyl-1-naphthylamine) was determined in solutions containing 4 μΜ BmCSP3 in 20 mM Tris-HCl pH 8.0, 100 mM NaCl by addition of 0 το 20 μM 1-NPN. To determine the ligands’ Ki, 1-NPN displacement was measured in solutions containing 4 μΜ BmCSP3, 10 μΜ 1-NPN and ligand concentrations ranged from 0-20 μΜ and 0–32 μΜ, for the tested neurotranmiters and lipids, respectively. Control samples containing the ligand and 1-NPN, but lacking protein, were run in parallel to determine background fluorescence, which was subtracted from the experimental data. All experiments were performed in technical triplicate. Given that the bottom values never reaches zero and varied among the different experiments, the ligand concentration that reduced the initial fluorescence by 50% (EC50int) was estimated from the displacement binding curves by interpolation, using the built-in interpolation function of GraphPad Prism.

[3] = target: T1, BmCSP3 (chemosensory protein 3); experiment: biochemical; design: 1-NPN fluorescence displacement binding with purified BmCSP3; Ki by Cheng-Prusoff from interpolated EC50; details: 4 uM BmCSP3, 10 uM 1-NPN, pH 8.0, 25 °C; read-out: Ki (μΜ)
Protocol: as §1, with “triplicate. The determination of dissociation constants and the visualization of the binding curves was carried out using the non-linear regression analysis program GraphPad Prism 8 (www.graphpad.com). The Kd of 1-NPN for BmCSP3 was determined to be 5.8 μΜ by fitting the fluorescence data to a single-binding site saturation model described by the equation” for “triplicate.”, “Prism. Subsequently, the ligand’s dissociation constant (Ki) was determined using the Cheng-Prusoff equation: […]” for “Prism.”

[4] = target: T1, BmCSP3 (chemosensory protein 3); experiment: direct fluorescence titration of the probe with purified protein, single-site saturation fit; format: binding

SMILES	EC50 [2] [µM]	Ki ([1]; read-out: Ki) [nM]	Ki [3] [µM]	Ki [1] [nM]	Kd [4] [µM]
NCCc1c[nH]c2ccc(O)cc12 [Serotonin]	4.81 ± 1.17	–	–	1800	–
O=C(O)Cc1cc(O)ccc1O [Homogentisic acid]	6.76 ± 1.58	–	–	2500	–
NCCc1c[nH]c2ccccc12 [Tryptamine]	0.03 ± 0.01	–	–	11	–
NCCCC[C@H](N)C(=O)O [L-lysine]	> 20	–	> 14	–	–
c1ccc(Nc2cccc3ccccc23)cc1 [1-NPN, N-Phenyl-1-naphthylamine]	–	–	–	–	5.8

The next lines start with results.

EC50 [2] [µM]	Ki ([1]; read-out: Ki) [nM]	Ki [3] [µM]	SMILES	Ki [1] [nM]	Kd [4] [µM]
5.82 ± 1.13	2130	–	CC(=O)NCCc1c[nH]c2ccc(O)cc12 [N-acetylserotonin]	–	–
0.79 ± 0.1	290	–	CC/C=C\C/C=C\C=C\[C@@H](O)CCCCCCCC(=O)O [9(S)-HOTrE, (10E,12Z,15Z)-9-hydroxyoctadeca-10,12,15-trienoic acid]	–	–
7.78 ± 1.48	2800	–	NC(=O)CC[C@H](N)C(=O)O [L-glutamine]	–	–
> 20	–	> 20	NCC(=O)O [Glycine]	–	–
> 20	–	> 20	NCCCC(N)C(=O)O (racemic) [DL-Ornithine]	–	–
0.2 ± 0.02	72	–	Nc1ccccc1C(=O)C[C@H](N)C(=O)O [L-kynurenine]	–	–
